Source: patent publication US9403843B2, “Cysteine protease inhibitors and uses thereof” (The Trustees of Columbia University in the City of New York, priority 2012, dated 2016)
Read-outs that look alike come from different tables or passages of the source.

What was measured:
[1] = molecular target: T1, full-length human Cal1 (Homo sapiens (Human), UniProt P07384); assay: Calpain inhibition FRET assay; assay type: biochemical
[2] = molecular target: papain (Carica papaya (Papaya), UniProt P00784); assay: biochemical; assay type: biochemical
[3] = system: Cal1cat vs CathB; assay: Competition assay for Cal1 vs CathB using the biotinylated epoxide probe; assay type: binding, rat
[4] = Acute and chronic toxicity, maximum tolerated dose; assay type: in vivo; settings: mouse, in vivo; mice; no malaise or death
Source text: For evaluation of acute and chronic toxicity we measured the maximum tolerated dose (MTD) in mice for 30a, 33 and 50.

[5] = Plasma pharmacokinetics after i.p. administration; assay type: in vivo; settings: ICR mice
Method: Plasma concentrations of 30a, 33 and 50 were determined by LC-MS/MS after i.p. administration to ICR mice. The plasma concentrations at each sampling time are shown on FIG. 10. […] Indeed, following i.p. administration of 30a (7.57 mg/kg), 33 (7.86 mg/kg) and 50 (7.83 mg/kg), the peak plasma concentration occurred at 0.25, 0.5 and 0.125 h after dosing, respectively. […] The respective half-lives were ˜0.6 hrs, ˜1.1 hrs and ˜0.6 hrs.

[6] = molecular target: T1, full-length human Cal1; assay: Calpain inhibition FRET assay; assay type: biochemical; settings: Table 3, 20 min incubation, FRET substrate

Sequence of papain (P00784 134-345): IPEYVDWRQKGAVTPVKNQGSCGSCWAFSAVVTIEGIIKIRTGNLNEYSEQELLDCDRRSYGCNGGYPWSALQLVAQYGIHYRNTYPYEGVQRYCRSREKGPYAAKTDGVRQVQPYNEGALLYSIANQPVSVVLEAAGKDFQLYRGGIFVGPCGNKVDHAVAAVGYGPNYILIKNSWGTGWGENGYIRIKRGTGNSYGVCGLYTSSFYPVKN
T1 sequence (P07384 whole entry): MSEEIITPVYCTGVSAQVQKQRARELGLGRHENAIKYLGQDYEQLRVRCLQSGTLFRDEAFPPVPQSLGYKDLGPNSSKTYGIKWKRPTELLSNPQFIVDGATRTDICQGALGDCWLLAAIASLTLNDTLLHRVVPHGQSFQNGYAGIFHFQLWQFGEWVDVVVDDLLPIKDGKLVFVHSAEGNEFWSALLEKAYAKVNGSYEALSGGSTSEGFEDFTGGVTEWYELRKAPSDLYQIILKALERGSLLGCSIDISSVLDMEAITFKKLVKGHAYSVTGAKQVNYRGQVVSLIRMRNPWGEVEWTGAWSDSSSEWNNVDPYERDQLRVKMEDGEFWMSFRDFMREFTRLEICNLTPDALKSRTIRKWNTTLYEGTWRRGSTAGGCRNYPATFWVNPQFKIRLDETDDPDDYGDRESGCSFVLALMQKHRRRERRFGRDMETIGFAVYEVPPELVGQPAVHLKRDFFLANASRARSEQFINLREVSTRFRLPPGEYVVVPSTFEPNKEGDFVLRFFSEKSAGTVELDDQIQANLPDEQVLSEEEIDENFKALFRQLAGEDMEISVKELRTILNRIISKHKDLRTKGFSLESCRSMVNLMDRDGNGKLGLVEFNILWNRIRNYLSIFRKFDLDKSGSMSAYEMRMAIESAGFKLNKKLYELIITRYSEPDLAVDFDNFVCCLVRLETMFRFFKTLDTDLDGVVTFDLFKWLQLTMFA
T1 sequence (P04632 whole entry partner): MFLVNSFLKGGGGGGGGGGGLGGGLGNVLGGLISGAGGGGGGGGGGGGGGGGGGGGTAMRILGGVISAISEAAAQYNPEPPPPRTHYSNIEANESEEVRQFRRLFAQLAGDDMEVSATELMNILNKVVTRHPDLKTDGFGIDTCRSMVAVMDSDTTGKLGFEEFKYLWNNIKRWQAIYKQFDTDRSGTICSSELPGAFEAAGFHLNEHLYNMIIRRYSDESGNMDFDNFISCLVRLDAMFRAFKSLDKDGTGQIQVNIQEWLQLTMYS

## O=C(O)C1OC1C(=O)N[C@@H](Cc1cscn1)C(=O)Nc1nc(-c2ccc(F)cc2)cs1 (stereo in doubt) [Compound 33, (2S,3S)-3-((S)-1-(4-(4-fluorophenyl)thiazol-2-ylamino)-1-oxo-3-(thiazol-4-yl)propan-2-ylcarbamoyl)oxirane-2-carboxylic acid]
[1]; Cal1, values stated in text, read-out: IC50
  IC50: ~100 nM
[1]; Table 2, approximate IC50, read-out: Cal I IC50
  IC50: 100 nM
[2]; apparent equilibrium constant, read-out: K1 Papain
  Ki: 5.3 µM
[2]; inhibition rate
  ki Papain: 14.8 s⁻¹
[2]; ki/Ki calculated relative to E-64
  rel Papain: 0.50
[2]; mean ± S.D. of triplicate experiments
  10^−5 × ki/Ki Papain: 27.9 ± 4.7
[3]; 10 min pre-treatment, then 20 min with 27
  blocking of active site modification by probe 27 (western blot signal): little change in the CathB signal
[3]; ratio for probe 27 alone set as 1.0, inhibitor 5 μM
  selectivity for Cal1cat (ratio of Cal1cat versus CathB band intensities): highest selectivity
[4]
  MTD: 150 mg/kg
[5]; i.p., 30a 7.57, 33 7.86, 50 7.83 mg/kg
  time of peak plasma concentration: 0.5 h
[5]; mouse, ip, plasma
  half-life: ~66 min
[5]; mouse, plasma, ip, after i.p. administration, read-out: absolute bioavailability
  bioavailability: 87.3%
[6]
  IC50: 100 nM
